According to the NIST ThermoML archive (doi:10.1021/je800377b):
± gives the expanded uncertainty stated by the source.

Conditions: Liquid

vapor or sublimation pressure (273.15 K) | vapor or sublimation pressure (283.15 K) | vapor or sublimation pressure (293.15 K) | vapor or sublimation pressure (303.15 K) | vapor or sublimation pressure (313.15 K) | vapor or sublimation pressure (323.15 K) | SMILES
103 ± 2 kPa | 149 ± 3 kPa | 208 ± 3 kPa | 284 ± 4 kPa | 378 ± 5 kPa | 493 ± 6 kPa | CCCC [butane]
476 ± 6 kPa | 633 ± 8 kPa | 833 ± 10 kPa | 1079 ± 13 kPa | 1366 ± 17 kPa | 1709 ± 21 kPa | CCC [propane]
